Results as given in patent US5097013A, “Novel peptides possessing a macrophage chemotactic activity” (Kao Corporation, priority 1988, dated 1992).
Square brackets hold non-standard residues; d marks the D form. Peptide text beside a SMILES is read from it. * marks the point of attachment. Fmoc = O=C(OCC1c2ccccc2-c2ccccc21)*; dNle = CCCC[C@@H](N)C(=O)O

Tested on: macrophage (peritoneal exudate cells)
Assay: Macrophage chemotactic activity, 48 well chemotaxis chamber
Assay type: cell-based, guinea pig
Conditions: Table 2; test described in Example 64; relative scale, Compound No. 1 = 100
Procedure: Macrophage chemotactic activity in the examples was determined as follows.
Peritoneal exudate cells (usually more than 95% were macrophage) collected from guinea pig in which liquid paraffin had previously been peritoneally injected 3 or 4 days before were used as macrophage in a cell concentration of 2×10^6 /ml.
A sample which activity was to be determined was charged in lower wells of a 48 well chemotaxis chamber and a polycarbonate membrane having a pore size of 5 μm was put thereon, and the macrophage suspension was charged in upper wells followed by incubation at 37° C. for 90 minutes in a CO2 incubator. After the incubation, adherent cells on the non-chemotactic surface was removed, fixed and subjected to Giemsa staining and then to inclusion treatment. Then, the cells on the chemotactic surface were microscopically (×400) counted and the cell count was made MCF activity.
The peptide synthesized in Example 5 was dissolved in 5 mM MgCl2 and the solution was suitably diluted with 0.5% FCS-containing Hanks' medium.

Compound	Activity (macrophage chemotactic activity)
CC(C)C[C@H](NC(=O)[C@H](Cc1c[nH]c2ccccc12)NC(=O)OCC1c2ccccc2-c2ccccc21)C(=O)NCC(=O)N[C@@H](CCCNC(=N)N)C(=O)N[C@@H](CCC(=O)O)C(=O)N[C@@H](CC(=O)O)C(=O)NCC(=O)N[C@@H](CO)C(=O)N[C@@H](CCC(=O)O)C(=O)O [Compound 13, Fmoc-L-Trp-L-Leu-Gly-L-Arg-L-Glu-L-Asp-Gly-L-Ser-L-Glu-OH] (Fmoc-WLGREDGSE-OH)	< 10
CC(C)C[C@H](NC(=O)[C@@H](N)Cc1c[nH]c2ccccc12)C(=O)NCC(=O)N[C@@H](CCCNC(=N)N)C(=O)O [Compound 27, H-L-Trp-L-Leu-Gly-L-Arg-OH] (H-WLGR-OH)	< 10
CC(C)C[C@H](NC(=O)[C@H](Cc1c[nH]c2ccccc12)NC(=O)OCC1c2ccccc2-c2ccccc21)C(=O)NCC(=O)N[C@@H](CCCNC(=N)N)C(=O)N[C@@H](CCC(=O)O)C(=O)N[C@@H](CC(=O)O)C(=O)O [Compound 29, Fmoc-L-Trp-L-Leu-Gly-L-Arg-L-Glu-L-Asp-OH] (Fmoc-WLGRED-OH)	< 10
CC(C)C[C@H](NC(=O)[C@@H](Cc1c[nH]c2ccccc12)NC(=O)OCC1c2ccccc2-c2ccccc21)C(=O)NCC(=O)N[C@@H](CCCNC(=N)N)C(=O)N[C@@H](CCC(=O)O)C(=O)N[C@@H](CC(=O)O)C(=O)O [Compound 30, Fmoc-D-Trp-L-Leu-Gly-L-Arg-L-Glu-L-Asp-OH] (Fmoc-[dW]LGRED-OH)	< 10
CC(C)C[C@@H](NC(=O)[C@H](Cc1c[nH]c2ccccc12)NC(=O)OCC1c2ccccc2-c2ccccc21)C(=O)NCC(=O)N[C@@H](CCCNC(=N)N)C(=O)N[C@@H](CCC(=O)O)C(=O)N[C@@H](CC(=O)O)C(=O)O [Compound 32, Fmoc-L-Trp-D-Leu-Gly-L-Arg-L-Glu-L-Asp-OH] (Fmoc-W[dL]GRED-OH)	< 10
CC(C)C[C@H](NC(=O)[C@H](Cc1c[nH]c2ccccc12)NC(=O)OCC1c2ccccc2-c2ccccc21)C(=O)NCC(=O)N[C@@H](CCCNC(=N)N)C(=O)N[C@H](CCC(=O)O)C(=O)N[C@@H](CC(=O)O)C(=O)O [Compound 34, Fmoc-L-Trp-L-Leu-Gly-L-Arg-D-Glu-L-Asp-OH] (Fmoc-WLGR[dE]D-OH)	< 10
CC(C)C[C@H](NC(=O)[C@H](Cc1c[nH]c2ccccc12)NC(=O)OCC1c2ccccc2-c2ccccc21)C(=O)NCC(=O)N[C@@H](CCCNC(=N)N)C(=O)N[C@@H](CCC(=O)O)C(=O)N[C@H](CC(=O)O)C(=O)O [Compound 39, Fmoc-L-Trp-L-Leu-Gly-L-Arg-L-Glu-D-Asp-OH] (Fmoc-WLGRE[dD]-OH)	10
H-FLGREDGSE-OH [Compound 7]	< 10
H-KWLGREDGSE-OH [Compound 3]	80
H-L-Glu-L-Asp-Gly-L-Ser-L-Glu-OH [Compound 25]	< 10
H-L-Trp-L-AIa-Gly-L-Arg-L-Glu-L-Asp-Gly-L-Ser-L-Glu-NH2 [Compound 44]	< 10
H-L-Trp-L-Leu-Gly-L-Arg-L-Glu-OH [Compound 24]	< 10
H-LGREDGSE-OH [Compound 51]	< 10
H-MWLGRED-OH [Compound 47]	< 10
H-WAGRED-OH [Compound 42]	< 10
H-WAGREDGSE-OH [Compound 9]	< 10
H-WGGREDGSE-OH [Compound 52]	< 10
H-WIIREDGSE-OH [Compound 43]	< 10
H-WLGKEDGSE-OH [Compound 8]	< 10
H-WLGLEDGSE-OH [Compound 49]	10
H-WLGRED-NH2 [Compound 26]	10
H-WLGRED-OH [Compound 23]	10
H-WLGREDG-OH [Compound 22]	< 10

Compound	Activity (macrophage chemotactic activity)
H-WLGREDGAE-OH [Compound 20]	< 10
H-WLGREDGCE-OH [Compound 17]	< 10
H-WLGREDGLL-NH2 [Compound 46]	< 10
H-WLGREDGS-OH [Compound 21]	10
H-WLGREDGSD-OH [Compound 4]	10
H-WLGREDGSE-NH2 [Compound 12]	< 10
H-WLGREDGSE-OH [Compound 1, H-L-Trp-L-Leu-Gly-L-Arg-L-Glu-L-Asp-Gly-L-Ser-L-Glu-OH]	100
H-WLGREDGSQ-OH [Compound 28]	< 10
H-WLGREDG[dS]E-OH [Compound 36]	< 10
H-WLGREEGS-OH [Compound 38]	< 10
H-WLGRENGSE-OH [Compound 5]	< 10
H-WLGRGDGSE-OH [Compound 48, H-L-Trp-L-Leu-Gly-L-Arg-Gly-L-Asp-Gly-L-Ser-L-Glu-OH]	< 10
H-WLGRQDGSE-OH [Compound 2]	80
H-WLGRQNGSQ-NH2 [Compound 11, H-L-Trp-L-Leu-Gly-L-Arg-L-Gln-L-Asn-Gly-L-Ser-L-Gln-NH2]	< 10
H-WLGR[dE]DGSE-OH [Compound 41]	< 10
H-WLGYEDGSE-OH [Compound 18]	50
H-WLG[dR]EDGSE-OH [Compound 14]	80
H-WLIREDGSE-OH [Compound 6]	< 10
H-WPREDGSE-OH [Compound 10]	< 10
H-WVREDGSE-OH [Compound 50]	< 10
H-W[dL]GREDGSE-OH [Compound 37]	< 10
H-W[dNle]GREDGSE-OH [Compound 15]	< 10
H-[dW]LGREDGSE-OH [Compound 16]	< 10

Same assay, conditions: dissolved in 5 mM MgCl2, diluted with 0.5% FCS-containing Hanks' medium

Compound	macrophage chemotactic activity (in words)
H-WLGREDGSE-OH [Compound 1, H-L-Trp-L-Leu-Gly-L-Arg-L-Glu-L-Asp-Gly-L-Ser-L-Glu-OH]	high activities

Same assay, conditions: relative activity, Table 1 (culture supernatant of hybridoma MCF-A51 = 100.0, medium alone 10.0); 3 × 10^-8 M; dissolved in 5 mM MgCl2, diluted with 0.5% FCS-containing Hanks' medium

Compound	Macrophage Chemotactic Activity
H-WLGREDGSE-OH [Compound 1, H-L-Trp-L-Leu-Gly-L-Arg-L-Glu-L-Asp-Gly-L-Ser-L-Glu-OH]	41.4
